Experiments:
[1] = tested on: dural protein extravasation; experiment: Animal model of dural protein extravasation (rat); assay type: in vivo; conditions: for Inhibition of Dural Protein Extravasation ID50: rat, i.v.
Method: (§1) The following animal model was employed to determine the ability of each of the panel of compounds to inhibit protein extravasation, an exemplary functional assay of the neuronal mechanism of migraine.
Harlan Sprague-Dawley rats (225–325 g) or guinea pigs from Charles River Laboratories (225–325 g) were anesthetized with sodium pentobarbital intraperitoneally (65 mg/kg or 45 mg/kg respectively) and placed in a stereotaxic frame (David Kopf Instruments) with the incisor bar set at −3.5 mm for rats or −4.0 mm for guinea pigs. Following a midline sagital scalp incision, two pairs of bilateral holes were drilled through the skull (6 mm posterially, 2.0 and 4.0 mm laterally in rats; 4 mm posteriorly and 3.2 and 5.2 mm laterally in guinea pigs, all coordinates referenced to bregma). Pairs of stainless steel stimulating electrodes, insulated except at the tips (Rhodes Medical Systems, Inc.), were lowered through the holes in both hemispheres to a depth of 9 mm (rats) or 10.5 mm (guinea pigs) from dura.
The femoral vein was exposed and a dose of the test compound was injected intravenously (i.v.) at a dosing volume of 1 ml/Kg or, in the alternative, test compound was administered orally (p.o) via gavage at a volume of 2.0 ml/Kg. Approximately 7 minutes post i.v. injection, a 50 mg/Kg dose of Evans Blue, a fluorescent dye, was also injected intravenously. The Evans Blue complexed with proteins in the blood and functioned as a marker for protein extravasation. Exactly 10 minutes post-injection of the test compound, the left trigeminal ganglion was stimulated for 3 minutes at a current intensity of 1.0 mA (5 Hz, 4 msec duration) with a Model 273 potentiostat/galvanostat (EG&G Princeton Applied Research).
Fifteen minutes following stimulation, the animals were killed and exsanguinated with 20 mL of saline. The top of the skull was removed to facilitate the collection of the dural membranes. […]
(§2) A fluorescence microscope (Zeiss) equipped with a grating monchromator and a spectrophotometer was used to quantify the amount of Evans Blue dye in each sample. An excitation wavelength of approximately 535 nm was utilized and the emission intensity at 600 nm was determined. […] This facilitated the computer-controlled movement of the stage with fluorescence measurements at 25 points ([…]) on each dural sample. The mean and standard deviation of the measurements were determined by the computer.
(§3) The extravasation induced by the electrical stimulation of the trigeminal ganglion was an ipsilateral effect (i.e. occurs only on the side of the dura in which the trigeminal ganglion was stimulated). […] The ratio of the amount of extravasation in the dura from the stimulated side, over the amount of extravasation in the unstimulated side, was calculated. […]

[2] = tested on: dural protein extravasation; experiment: Animal model of dural protein extravasation (guinea pig); assay type: in vivo; conditions: Gpig (guinea pig), i.v.
Method: as §1
Harlan Sprague-Dawley rats (225–325 g) or guinea pigs from Charles River Laboratories (225–325 g) were anesthetized with sodium pentobarbital intraperitoneally (65 mg/kg or 45 mg/kg respectively) and placed in a stereotaxic frame (David Kopf Instruments) with the incisor bar set at −3.5 mm for rats or −4.0 mm for guinea pigs. […]
as §2, §3

| SMILES | Inhibition of Dural Protein Extravasation ID100 ([1]; p.o., species not given) | Inhibition of Dural Protein Extravasation ID50 [1] | Inhibition of Dural Protein Extravasation ID50 [2] |
| --- | --- | --- | --- |
| CCOC(=O)[C@@H]1C[C@H]2C[C@@H](CN3CC(F)(F)C[C@H]3C(=O)OCC)CC[C@H]2CN1 [Compound IV(b), 3S,4aR,6S,8aR Ethyl 6-(((2S)-2-(Ethoxycarbonyl)-4,4-difluoropyrrolidinyl)methyl)-1,2,3,4,4a,5,6,7,8,8a-decahydroisoquinoline-3-carboxylate] | 1e-05 µg/kg |  |  |
| O=C(O)[C@@H]1C[C@H]2C[C@@H](CCSc3nnn[nH]3)CC[C@H]2CN1 [Compound III] |  | .0053 (rat) ng/Kg |  |
| O=C(O)[C@@H]1C[C@H]2C[C@@H](COCc3nnn[nH]3)CC[C@H]2CN1 [Compound II, 3S,4aR,6S,8aR-6-((((1H-Tetrazole-5-yl)methyl)oxy)methyl)-1,2,3,4,4a,5,6,7,8,8a-decahydroisoquinoline-3-carboxylic acid] |  | 15 (rat) ng/Kg |  |
| O=C(O)c1ccc(C[C@H]2CC[C@H]3CN[C@H](C(=O)O)C[C@H]3C2)cc1 [Compound I, 3S,4aR,6S,8aR-6-(((4-carboxy)phenyl)methyl)-1,2,3,4,4a,5,6,7,8,8a-decahydroisoquinoline-3-carboxylic acid] |  | 6.5 (rat), ng/Kg | 4.0 (Gpig) ng/Kg |
